These results are taken from patent publication US20240270821A1, “GIP/GLP1/GCG TRI-RECEPTOR AGONISTS AND USES THEREOF” (priority 2023, published 2024).

Like-named read-outs stand apart in the source and are kept apart here. Starred links: 1 amine or outer side, 2 acyl side, 3 side chain; linkers in the order of their positions; H or OH if unused. Non-standard residues stand in square brackets, D forms with d. Groups on a side chain read outwards from the residue. No end group written: not given here. *: point of attachment. C20 diacid = O=C(O)CCCCCCCCCCCCCCCCCCC(=O)*; C18 diacid = O=C(O)CCCCCCCCCCCCCCCCC(=O)*; αMePhe(2-F) = C[C@](N)(Cc1ccccc1F)C(=O)O; γGlu = O=C(O)[C@H](CCC(=O)[*:2])N[*:1]; αMe4Pal = C[C@](N)(Cc1ccncc1)C(=O)O; αMeY = C[C@](N)(Cc1ccc(O)cc1)C(=O)O; 4Pal = N[C@@H](Cc1ccncc1)C(=O)O; αMeL = CC(C)C[C@](C)(N)C(=O)O; αMeS = C[C@](N)(CO)C(=O)O; Orn = NCCC[C@H](N)C(=O)O; AEEA = NCCOCCOCC(=O)O; Aib = CC(C)(N)C(=O)O

One may read the EC50 as the concentration needed to bring the measured effect to its halfway point.

Common to all, as to type: cell-based
Assay [1] addresses T1, hGLP-1R (Homo sapiens, UniProt P43220). Nature of the assay: Functional cAMP activity in the presence of 1% HSA. As to conditions: read-out: cAMP Rel EC50, hGLP-1R.
In another assay the target is hGcgR (Homo sapiens, UniProt P47871). Briefly: Functional cAMP activation in the presence of 0.1% casein (no HSA). The following applies: read-out: Relative cAMP EC50, hGcgR.
The next assay concerns the target human GcgR (Homo sapiens, UniProt P47871). Briefly: Functional cAMP activity in the presence of 1% HSA. As to conditions: read-out: cAMP Rel EC50, hGcgR.
In assay [2] the target is T2, hGIPR (Homo sapiens, UniProt P48546).
T2 sequence (P48546 22-466): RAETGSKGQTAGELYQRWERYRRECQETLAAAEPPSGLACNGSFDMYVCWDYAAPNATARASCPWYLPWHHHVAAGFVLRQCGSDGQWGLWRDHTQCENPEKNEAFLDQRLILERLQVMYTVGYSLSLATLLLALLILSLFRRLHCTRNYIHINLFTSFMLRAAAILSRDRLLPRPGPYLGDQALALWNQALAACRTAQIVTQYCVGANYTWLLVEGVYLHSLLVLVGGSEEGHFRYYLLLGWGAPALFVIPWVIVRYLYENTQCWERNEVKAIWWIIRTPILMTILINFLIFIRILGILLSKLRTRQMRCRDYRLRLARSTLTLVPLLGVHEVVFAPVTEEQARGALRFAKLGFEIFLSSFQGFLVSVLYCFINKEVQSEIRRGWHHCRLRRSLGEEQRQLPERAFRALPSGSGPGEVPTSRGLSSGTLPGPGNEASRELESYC
Nature of the assay: Functional cAMP activation in the presence of 0.1% casein (no HSA). The following applies: read-out: Relative cAMP EC50, hGIPR.

The target in assay [3] is T2, hGIPR. Nature of the assay: Functional cAMP activity in the presence of 1% HSA. The following applies: read-out: cAMP Rel EC50, hGIPR.
Assay [4] has as its target T1, hGLP-1R. Nature of the assay: Functional cAMP activation in the presence of 0.1% casein (no HSA). As to conditions: read-out: Relative cAMP EC50, hGLP-1R.
Where [5] appears, read: in the presence of 0.1% casein (no HSA), geometric mean.
Where [6] appears, read: HEK-293 clonal cell line, in the presence of 1% HSA, geometric mean of relative EC50.
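Wherever Relative cAMP EC50, hGIPR is given: intracellular cAMP rise after 30 min at 37 °C read by HTRF against a standard curve, scaled between buffer alone (0%) and top control ligand concentration (100%), four-parameter fit.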
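Wherever Relative cAMP EC50, hGLP-1R is given: intracellular cAMP rise after 30 min at 37 °C read by HTRF, normalized between buffer only (0%) and maximal control ligand (100%), four-parameter variable-slope fit.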
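Wherever Relative cAMP EC50, hGcgR is given: intracellular cAMP rise after 30 min at 37 °C, read by HTRF against a cAMP standard curve, scaled from buffer only (0%) to maximal control ligand response (100%).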

Chain of human GcgR (P47871 26-477): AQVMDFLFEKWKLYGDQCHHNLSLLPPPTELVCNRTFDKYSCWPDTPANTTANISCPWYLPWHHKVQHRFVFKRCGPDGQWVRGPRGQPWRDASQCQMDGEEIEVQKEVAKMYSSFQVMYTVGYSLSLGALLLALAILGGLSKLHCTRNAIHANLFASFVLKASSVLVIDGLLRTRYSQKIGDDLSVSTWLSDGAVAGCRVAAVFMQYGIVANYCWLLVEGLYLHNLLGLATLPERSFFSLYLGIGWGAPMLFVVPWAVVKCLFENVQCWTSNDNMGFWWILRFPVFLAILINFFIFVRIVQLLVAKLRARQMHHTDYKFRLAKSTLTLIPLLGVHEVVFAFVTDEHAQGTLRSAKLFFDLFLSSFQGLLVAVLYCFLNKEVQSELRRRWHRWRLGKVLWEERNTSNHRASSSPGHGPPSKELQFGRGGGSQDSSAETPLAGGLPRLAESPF
Chain of hGcgR (P47871 26-477): as above
T1 sequence (P43220 24-463): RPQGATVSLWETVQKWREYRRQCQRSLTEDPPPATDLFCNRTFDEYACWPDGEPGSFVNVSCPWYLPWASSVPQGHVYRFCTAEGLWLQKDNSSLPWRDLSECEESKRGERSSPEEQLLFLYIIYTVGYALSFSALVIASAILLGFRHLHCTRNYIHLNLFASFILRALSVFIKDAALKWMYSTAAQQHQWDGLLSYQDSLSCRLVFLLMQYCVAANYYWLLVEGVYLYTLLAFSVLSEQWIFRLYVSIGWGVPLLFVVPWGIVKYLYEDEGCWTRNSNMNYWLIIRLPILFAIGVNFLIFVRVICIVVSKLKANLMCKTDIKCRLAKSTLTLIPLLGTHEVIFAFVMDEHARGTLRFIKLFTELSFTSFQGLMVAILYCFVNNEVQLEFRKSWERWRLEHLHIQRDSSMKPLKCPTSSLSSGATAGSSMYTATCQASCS

For the compound “H-Y[Aib]QGTFTSD[4Pal]SQ[αMeL]LDKK([γGlu-γGlu-C18 diacid])AQ[αMe4Pal]AFIE[αMe4Pal]LIEGGPSSGAPPPSGS-NH2 [Example 951]”, the EC50 at hGLP-1R [1] was determined as 382 nM; on hGcgR (setting [5]) it was 5.73 nM; at human GcgR, 657 nM; at hGIPR [2] (setting [5]) it was 0.156 nM; on hGIPR [3] it was 18.2 nM; on hGLP-1R [4] (setting [5]), 2.61 nM.

On to “Y[Aib]QGTFTSD[4Pal]SQ[αMeL]LDKK([AEEA-γGlu-C18 diacid])AQ[Aib]AFIEYLLE[dA]GPSSGAPPPSGS-NH2 [Example 820]”, for which the EC50 at hGLP-1R [1] was determined as 299 nM; at hGcgR (setting [5]) it was 6.83 nM; at human GcgR, 1270 nM; on hGIPR [2] (setting [5]) it was 0.121 nM; on hGIPR [3] it was 17.5 nM; on hGLP-1R [4] (setting [5]), 2.78 nM.

For `CC[C@H](C)[C@H](NC(=O)[C@H](Cc1ccccc1)NC(=O)[C@H](C)NC(=O)C(C)(C)NC(=O)[C@H](CCC(N)=O)NC(=O)[C@H](C)NC(=O)[C@H](CCCCNC(=O)COCCOCCNC(=O)CC[C@H](NC(=O)CCCCCCCCCCCCCCCCC(=O)O)C(=O)O)NC(=O)[C@H](CCCCN)NC(=O)[C@H](CC(=O)O)NC(=O)[C@H](CC(C)C)NC(=O)[C@](C)(CC(C)C)NC(=O)[C@@H](NC(=O)[C@H](CO)NC(=O)[C@H](Cc1ccc(O)cc1)NC(=O)[C@H](CC(=O)O)NC(=O)[C@H](CO)NC(=O)[C@@H](NC(=O)[C@](C)(Cc1ccccc1)NC(=O)[C@@H](NC(=O)CNC(=O)[C@H](CCC(N)=O)NC(=O)C(C)(C)NC(=O)[C@@H](N)Cc1ccc(O)cc1)[C@@H](C)O)[C@@H](C)O)[C@@H](C)CC)C(=O)N[C@@H](CCC(=O)O)C(=O)N[C@@H](Cc1ccc(O)cc1)C(=O)N[C@@H](CC(C)C)C(=O)N[C@@H](CCC(=O)O)C(=O)N[C@@H](CCC(=O)O)C(=O)NCC(=O)NCC(=O)N1CCC[C@H]1C(=O)N[C@@H](CO)C(=O)N[C@@H](CO)C(=O)NCC(=O)N[C@@H](C)C(=O)N1CCC[C@H]1C(=O)N1CCC[C@H]1C(=O)N1CCC[C@H]1C(=O)N[C@@H](CO)C(=O)N[C@@H](CCC(=O)O)C(=O)NCC(N)=O` [Example 395], the EC50 came to 34.7 nM on hGLP-1R [1]; 5.55 nM at hGcgR; 1190 nM at human GcgR; 0.0248 nM at hGIPR [2]; 6.69 nM on hGIPR [3]; 0.349 nM at hGLP-1R [4].

On to “H-Y[Aib]QGT[αMePhe(2-F)]TSD[4Pal]SI[αMeL]LD[Orn]K([γGlu-γGlu-C18 diacid])AQ[αMe4Pal]EFI[dE][αMeY]LLEGGPSSGAPPPSGE-NH2 [Example 617]”, for which the 50% effective concentration (EC50) at hGLP-1R [1] came to 67.4 nM; at hGcgR, 4.56 nM; on human GcgR it was 547 nM; at hGIPR [2], 0.00849 nM; on hGIPR [3], 0.643 nM; on hGLP-1R [4] it was 0.534 nM.

As for “Y[Aib]QGT[αMePhe(2-F)]TSD[4Pal][αMeS]I[αMeL]LD[Orn]K([γGlu-γGlu-C18 diacid])AQ[Aib][Orn]FI[dE][αMeY]LSEGGPSSGEPPPSGSEE-NH2 [Example 569]”, the EC50 at hGLP-1R [1] came to 84.4 nM; at hGcgR it was 4.34 nM; on human GcgR it was 697 nM; at hGIPR [2] it was 0.199 nM; at hGIPR [3], 12.4 nM; at hGLP-1R [4], 1.12 nM.

With “H-Y[Aib]QGTFTSD[4Pal]SQ[αMeL]LDKK([γGlu-γGlu-C18 diacid])AQ[αMe4Pal]AFIEYLIAGGPSSGAPPPSGSEE-NH2 [Example 960]”, the EC50 on hGLP-1R [1] stood at 161 nM; on hGcgR (setting [5]), 5.5 nM; on human GcgR, 813 nM; on hGIPR [2] (setting [5]), 0.124 nM; on hGIPR [3] it was 14.1 nM; at hGLP-1R [4] (setting [5]), 1.51 nM.

For the compound “H-Y[Aib]QGTFTSD[4Pal]SQ[αMeL]LD[Orn]K([γGlu-γGlu-C18 diacid])AQ[αMe4Pal]AFIEYLIAGGPSSGEPPPSGTEEE-NH2 [Example 986]”, the EC50 at hGLP-1R [1] (setting [6]) worked out at 380 nM; at hGcgR (setting [5]), 4.94 nM; on human GcgR (setting [6]), 702 nM; at hGIPR [2] (setting [5]) it was 0.299 nM; on hGIPR [3] (setting [6]), 31.3 nM; at hGLP-1R [4] (setting [5]), 3.06 nM.

Consider `CC[C@H](C)[C@H](NC(=O)[C@H](CC(C)C)NC(=O)[C@](C)(Cc1ccc(O)cc1)NC(=O)[C@H](CCC(=O)O)NC(=O)[C@@H](NC(=O)[C@H](Cc1ccccc1)NC(=O)[C@H](CCC(N)=O)NC(=O)[C@](C)(Cc1ccncc1)NC(=O)[C@H](CCC(N)=O)NC(=O)[C@H](C)NC(=O)[C@H](CCCCNC(=O)COCCOCCNC(=O)CC[C@H](NC(=O)CCCCCCCCCCCCCCCCC(=O)O)C(=O)O)NC(=O)[C@H](CCCN)NC(=O)[C@H](CC(=O)O)NC(=O)[C@H](CC(C)C)NC(=O)[C@](C)(CC(C)C)NC(=O)[C@H](CCC(N)=O)NC(=O)[C@H](CO)NC(=O)[C@H](Cc1ccncc1)NC(=O)[C@H](CC(=O)O)NC(=O)[C@H](CO)NC(=O)[C@@H](NC(=O)[C@H](Cc1ccccc1)NC(=O)[C@@H](NC(=O)CNC(=O)[C@H](CCC(N)=O)NC(=O)C(C)(C)NC(=O)[C@@H](N)Cc1ccc(O)cc1)[C@@H](C)O)[C@@H](C)O)[C@@H](C)CC)C(=O)N[C@@H](CCC(=O)O)C(=O)NC(C)(C)C(=O)NCC(=O)N1CCC[C@H]1C(=O)N[C@@H](CO)C(=O)N[C@@H](CO)C(=O)NCC(=O)N[C@@H](C)C(=O)N1CCC[C@H]1C(=O)N1CCC[C@H]1C(=O)N1CCC[C@H]1C(=O)N[C@@H](CO)C(=O)NCC(=O)N[C@@H](CO)C(=O)N[C@@H](CCC(=O)O)C(=O)N[C@@H](CCC(=O)O)C(N)=O` [Example 1109], for which the EC50 at hGLP-1R [1] was 102 nM; on hGcgR (setting [5]) it was 10.8 nM; at human GcgR, 510 nM; at hGIPR [2] (setting [5]), 0.0626 nM; on hGIPR [3] it was 20.2 nM; at hGLP-1R [4] (setting [5]), 2.3 nM.

Regarding “Y[Aib]QGT[αMePhe(2-F)]TSDYSILLDKQAAK([AEEA-γGlu-C20 diacid])EFIEYLIEGGPSSGAPPPSEG-NH2 [Example 340]”, the EC50 was 246 nM on hGLP-1R [1]; 2.02 nM at hGcgR (setting [5]); 647 nM on human GcgR; 0.189 nM on hGIPR [2] (setting [5]); 60.4 nM at hGIPR [3]; 0.648 nM at hGLP-1R [4] (setting [5]).

Regarding “H-Y[Aib]QGTFTSD[4Pal]SQ[αMeL]LD[Orn]K([AEEA-γGlu-C18 diacid])AQ[αMe4Pal]QFIE[αMeY]LIEGGPSSGAPPPSGS-NH2 [Example 857]”, the concentration for a half-maximal effect (EC50) on hGLP-1R [1] is 87.3 nM; at hGcgR (setting [5]), 6.21 nM; on human GcgR, 1050 nM; on hGIPR [2] (setting [5]) it was 0.441 nM; on hGIPR [3] it was 36.1 nM; on hGLP-1R [4] (setting [5]) it was 0.433 nM.

In the case of “H-Y[Aib]QGTFTSD[4Pal]SQ[αMeL]LD[Orn]K([γGlu-γGlu-C18 diacid])AQ[αMe4Pal]AFIEYLIA[Aib]GPSSGAPPPSGSEE-NH2 [Example 1091]”, the EC50 at hGLP-1R [1] was found to be 145 nM; on hGcgR (setting [5]) it was 4.67 nM; at human GcgR it was 550 nM; on hGIPR [2] (setting [5]), 0.0592 nM; on hGIPR [3] it was 5.79 nM; on hGLP-1R [4] (setting [5]) it was 1.23 nM.

Consider “Y[Aib]QGT[αMePhe(2-F)]TSD[4Pal]SI[αMeL]LD[Orn]K([AEEA-γGlu-C18 diacid])AQ[αMe4Pal][Orn]FI[dE][αMeY]LIEGGPSSGDPPPEAE-NH2 [Example 728]”, for which the EC50 amounted to 26.7 nM at hGLP-1R [1]; 2.45 nM at hGcgR; 298 nM on human GcgR; 0.0116 nM on hGIPR [2]; 1.45 nM on hGIPR [3]; 0.277 nM on hGLP-1R [4].

Regarding “H-Y[Aib]QGT[αMePhe(2-F)]TSD[4Pal]SI[αMeL]LD[Orn]K([γGlu-γGlu-C18 diacid])AQ[αMe4Pal][Orn]FI[dE][αMeY]LIEGGPSSGEPPPEGTGE-NH2 [Example 688]”, the EC50 came to 19.5 nM at hGLP-1R [1]; 2.06 nM on hGcgR; 182 nM on human GcgR; 0.00881 nM at hGIPR [2]; 0.61 nM at hGIPR [3]; 0.304 nM on hGLP-1R [4].
